Source: paper PMC11598835 (Viruses, 2024)
≈ marks a conversion by molar mass, not a printed value. Where two headings read alike, the source gives them in different places.

Experiments:
[1] = tested on: SARS-CoV-2 B.1 lineage isolate
[2] = tested on: SARS-CoV-2 B.1 lineage isolate; test: microbe, parasite or virus in culture; conditions: Severe acute respiratory syndrome coronavirus 2, Calu-3, 24 h
in vitro = type: cell-based; conditions: human
[3] = biological target: Recombinant SARS-CoV-2 Mpro (Severe acute respiratory syndrome coronavirus 2, UniProt P0DTD1); test: Protease inhibition FRET assay, Mpro; type: biochemical; conditions: Mpro 1.5 μM, substrate 50 μM
[4] = biological target: Recombinant SARS-CoV-2 PLpro (Severe acute respiratory syndrome coronavirus 2, UniProt P0DTD1); test: biochemical; conditions: FRET, PLpro 1 μM
physchem = type: physicochemical; conditions: water, thermodynamic from solid
[5] = In vivo plasma pharmacokinetics in rats; conditions: male, Wistar, ip, rat
[6] = cited from earlier work
SARS-CoV-2 = conditions: read-out: EC50, anti-SARS-CoV-2; cited from earlier work
HIV-1 = tested on: HIV-1; design: method as in ref 15 = [15]; conditions: read-out: EC50, antiviral activity for HIV-1; cited from earlier work
[7] = read-out: Inhibition of Viral Replication in Calu-3 (%)
[8] = read-out: difference in SARS-CoV-2 inhibition compared to compound 4a

| SMILES | inhibition at 10 µM [2, 7] [%] | CC50 at 72 h (in vitro) [µM] | IC50 [3] [µM] | IC50 [4] [µM] | SI (CC50/EC50) [1] | selectivity indexes (SI), conclusions [1] [µM] | further results |
| --- | --- | --- | --- | --- | --- | --- | --- |
| O=C1c2ccccc2C(=O)c2c1[nH]c1ccc(F)cc21 [4g, 2-Fluoro-5H-benzo[b]carbazole-6,11-dione] | 69.4 | – | – | – | – | – | Inhibition of Viral Replication in Calu-3 (%) ([1]; 10 µM): 69% |
| COc1cccc2c3c([nH]c12)C(=O)c1ccccc1C3=O [4d, 4-Methoxy-5H-benzo[b]carbazole-6,11-dione] | 86.5 | > 200 | > 200 | 190.8 ± 0.1 | >141.8 | > 50 | inhibition at 10 µM [2, 8]: 8.1% |
| Cc1ccc2[nH]c3c(c2c1)C(=O)c1ccccc1C3=O [4c, 2-Methyl-5H-benzo[b]carbazole-6,11-dione] | – | – | – | – | – | – | Inhibition of Viral Replication in Calu-3 (%) ([1]; 10 µM): ineffective |
| O=C1c2ccccc2C(=O)c2c1[nH]c1ccccc21 [4a, 5H-Benzo[b]carbazole-6,11-dione] | 94.6 | > 200 | 0.11 ± 0.05 | 153 ± 0.1 | >266.7 | > 50 | solubility (physchem): 1.43 µg/mL (≈ 5.78 µM); CL/F ([5]; plasma, 5 mg/kg i.p.): 31.2 mL/min/kg; Vd/F ([5]; plasma, 5 mg/kg i.p., read-out: Vz/F): 98 ± 186 L/kg; half-life ([5]; plasma, 5 mg/kg i.p., read-out: t1/2,z (converted)): 37 ± 60 h; Cmax ([5]; in vivo, 5 mg/kg): 770 ± 120 nM; Tmax ([5]; in vivo, 5 mg/kg): 0.333 h; concentration at 24 h ([5]; in vivo, 5 mg/kg): 120 ± 40 nM |
| O=C1c2ccccc2C(=O)c2c1[nH]c1c2ccc2ccccc21 [4i, 7H-Dibenzo[a,h]carbazole-7,12(13H)-dione] | 85.9 | > 200 | > 200 | 148.7 ± 0.6 | >53.7 | > 50 | viability at 72 h, 100 µM (in vitro): 68%; EC50 [1]: 3.73 ± 0.6 µM; EC50 [2]: < 4 µM |
| CCOC(=O)c1ccc2[nH]c3c(c2c1)C(=O)c1ccccc1C3=O [4f, Ethyl 6,11-dioxo-6,11-dihydro-5H-benzo[b]carbazole-2-carboxylate] | 64 | – | – | – | – | – | Inhibition of Viral Replication in Calu-3 (%) ([1]; 10 µM): 64% |
| COc1ccc2[nH]c3c(c2c1)C(=O)c1ccccc1C3=O [4b, 2-Methoxy-5H-benzo[b]carbazole-6,11-dione] | 96.2 | > 200 | 0.37 ± 0.05 | 72.1 ± 0.1 | >119.0 | > 50 | difference in SARS-CoV-2 inhibition compared to compound 4a ([1]; 10 µM): no significant change |
| COC(=O)N[C@H](C(=O)N[C@@H](Cc1ccccc1)[C@@H](O)CN(Cc1ccc(-c2ccccn2)cc1)NC(=O)[C@@H](NC(=O)OC)C(C)(C)C)C(C)(C)C [Atazanavir] | – | – | – | – | – | – | free fraction, experimental data [6]: 14% |
| CC(C)C(=O)OC[C@H]1O[C@@H](n2ccc(NO)nc2=O)[C@H](O)[C@@H]1O [Molnupiravir] | – | – | – | – | – | – | EC50 (SARS-CoV-2): 1.96 µM |
| COc1cc2[nH]c3ccccc3c2cc1C=O [O-Methylmukonal] | – | – | – | – | – | – | EC50 (HIV-1): 12 µM |
| COc1cc(OC)c2[nH]c3c(c2c1)C(=O)c1ccccc1C3=O [4e, 2,4-Dimethoxy-5H-benzo[b]carbazole-6,11-dione] | 47.1 | – | – | – | – | – | inhibition at 10 µM [2, 8]: 47.4% |
| CCC(CC)COC(=O)[C@H](C)N[P@](=O)(OC[C@H]1O[C@@](C#N)(c2ccc3c(N)ncnn23)[C@H](O)[C@@H]1O)Oc1ccccc1 [Remdesivir] | – | – | – | – | – | – | EC50 (SARS-CoV-2): 2.49 µM |
| CC(C)(C)[C@H](NC(=O)C(F)(F)F)C(=O)N1C[C@H]2[C@@H]([C@H]1C(=O)N[C@H](C#N)C[C@@H]1CCNC1=O)C2(C)C [Nirmatrelvir] | – | – | – | – | – | – | EC50 (SARS-CoV-2): 0.1 µM |
